Values of other authors in patent US10576065B2, “Pharmaceutical composition containing rifaximin alpha and delta” (Sandoz AG, priority 2016, dated 2020).
Like-named read-outs stand apart in the source and are kept apart here.

Experiments:
[1] = set-up: AUC: concentration or dose not given beside the values; conditions: dogs
[2] = human
[3] = film coated tablets, 400 mg (Blandizzi et al.), listed as Prior art alpha
[4] = film coated tablets, 400 mg (Blandizzi et al.)

Structure (SMILES) | AUC [1] | Cmax [1] | AUC ([2]; 200 mg) | Cmax ([2]; 200 mg) | AUC ([2]; 400 mg) | Cmax ([2]; 400 mg) | AUCt [2, 3] | Cmax [2, 3] | AUCt [2, 4] | Cmax [2, 4]
CO[C@H]1/C=C/O[C@@]2(C)Oc3c(C)c(O)c4c(O)c(c5c(nc6cc(C)ccn65)c4c3C2=O)NC(=O)/C(C)=C\C=C\[C@H](C)[C@H](O)[C@@H](C)[C@@H](O)[C@@H](C)[C@H](OC(C)=O)[C@@H]1C [Delta, rifaximin] | 830 ng·h/mL | 308.3 ng/mL | – | – | – | – | – | – | – | –
CO[C@H]1/C=C/O[C@@]2(C)Oc3c(C)c(O)c4c(O)c(c5c(nc6cc(C)ccn65)c4c3C2=O)NC(=O)/C(C)=C\C=C\[C@H](C)[C@H](O)[C@@H](C)[C@@H](O)[C@@H](C)[C@H](OC(C)=O)[C@@H]1C [Gamma, rifaximin] | 4,894 ng/ml × h | 1,085.1 ng/ml | – | – | – | – | – | – | – | –
CO[C@H]1/C=C/O[C@@]2(C)Oc3c(C)c(O)c4c(O)c(c5c(nc6cc(C)ccn65)c4c3C2=O)NC(=O)/C(C)=C\C=C\[C@H](C)[C@H](O)[C@@H](C)[C@@H](O)[C@@H](C)[C@H](OC(C)=O)[C@@H]1C [Alpha, rifaximin] | 17 ng·h/mL | 2.6 ng/mL | 5.77 ng·h/mL | 1.59 ng/mL | 13.03 ng·h/mL | 3.54 ng/mL | 13.03 ng·h/mL | 3.54 ng/mL | – | –
CO[C@H]1/C=C/O[C@@]2(C)Oc3c(C)c(O)c4c(O)c(c5c(nc6cc(C)ccn65)c4c3C2=O)NC(=O)/C(C)=C\C=C\[C@H](C)[C@H](O)[C@@H](C)[C@@H](O)[C@@H](C)[C@H](OC(C)=O)[C@@H]1C [Beta, rifaximin] | 12 ng·h/mL | 1.1 ng/mL | – | – | – | – | – | – | – | –
CO[C@H]1/C=C/O[C@@]2(C)Oc3c(C)c(O)c4c(O)c(c5c(nc6cc(C)ccn65)c4c3C2=O)NC(=O)/C(C)=C\C=C\[C@H](C)[C@H](O)[C@@H](C)[C@@H](O)[C@@H](C)[C@H](OC(C)=O)[C@@H]1C [amorphous, rifaximin] | – | – | 16.13 ng·h/mL | 3.70 ng/mL | 68.80 ng·h/mL | 15.01 ng/mL | – | – | 68.80 ng·h/mL | 15.01 ng/mL
CO[C@H]1/C=C/O[C@@]2(C)Oc3c(C)c(O)c4c(O)c(c5c(nc6cc(C)ccn65)c4c3C2=O)NC(=O)/C(C)=C\C=C\[C@H](C)[C@H](O)[C@@H](C)[C@@H](O)[C@@H](C)[C@H](OC(C)=O)[C@@H]1C [Epsilon, rifaximin] | 77 ng·h/mL | 6.9 ng/mL | – | – | – | – | – | – | – | –
